In paper PMC11206203, “Peptide macrocyclisation via intramolecular interception of visible-light-mediated desulfurisation” (Chemical Science, 2024):
Where a SMILES comes first, the peptide text is derived from it. [ ]: non-standard residue; d: D form. Nle = CCCC[C@H](N)C(=O)O

What was measured:
MCL-1 = biological target: T1, MCL-1 (Homo sapiens, UniProt Q07820); assay: Competitive inhibition, fluorescence anisotropy, MCL-1 and fluorophore-labelled WT BH3 sequence; format: binding; conditions: competition FA; MCL-1 (residues 172-327), tracer FAM-Ahx-BID / fluorophore-labelled WT BH3 sequence; 20 mM Tris, 150 mM NaCl, pH 7.6; 384-well plates, tested in triplicate; excitation 480 nm, emission 535 nm; fit to sigmoidal logistic model; Fig. S160; read-out: inhibitory potency (competitive inhibition, fluorescence anisotropy)
T1 construct: MCL-1 (residues 172-327) was expressed and purified as described previously; made in house
T1 sequence (Q07820 172-327): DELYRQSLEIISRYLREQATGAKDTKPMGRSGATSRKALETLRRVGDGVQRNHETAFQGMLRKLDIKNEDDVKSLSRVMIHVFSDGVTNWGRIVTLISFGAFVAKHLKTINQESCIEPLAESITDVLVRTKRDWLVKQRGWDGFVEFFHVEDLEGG
From the text: Finally, to explore internal peptide ‘stapling’ using this strategy, we selected a region of a BH3 protein – BID80–102, that binds MCL-1 to regulate apoptosis.[53,72] This PPI is known to play a significant role in cancer development and progression.[53,72] Three sequences (54–56) were synthesised with alGly and Cys positioned to afford either an internal i, i + 4 staple (57, 59; Fig. 5 and ESI ^†) or i, i + 7 staple (58; Fig. 5 and ESI ^†), fixing the length of either one or two full helical turns of the peptide, respectively. In addition, peptide macrocycle 26 is a head-to-tail macrocycle representing the i, i + 4 binding region of these longer sequences. The staple for all three peptides was successfully formed under the standard conditions, albeit in lower yield than the N- to C-terminal cyclisations previously explored (57–59). The alpha-helical structure of peptide 59 was assessed via CD spectroscopy. […]
All samples were prepared in 20mM Tris, 150 mM NaCl, pH 7.6 solutions. All assays were performed using 384 -well plates (Greiner Bio -one, UK) and tested in triplicate using an EnVisionTM 2103 MultiLabel plate reader (Perkin Elmer; Waltham, MA, USA). […] Measured data were processed and analysed as previously described. […]

[1] = C(sp3)-C(sp3) bond formation by visible-light-mediated Cys desulfurisation: alanyl radical adds to terminal alkene of allylglycine (or O-allyl Ser, pentenylGly, acrylamide); TCEP 50 eq (25 mM), (Ir[dF(CF3)ppy]2(dtbpy))PF6 1 mol%, 450 nm blue LED; unprotected peptides; conditions: from C=CC[C@H](NC(=O)[C@H](C)NC(=O)[C@H](CC(C)C)NC(=O)[C@H](Cc1c[nH]cn1)NC(=O)[C@H](CCCNC(=N)N)NC(=O)[C@H](C)NC(=O)[C@@H](NC(=O)[C@H](CC(N)=O)NC(=O)[C@H](CCCNC(=N)N)NC(=O)[C@@H](NC(=O)[C@@H](NC(=O)[C@H](CC(=O)O)NC(=O)[C@H](CCC(=O)O)NC(C)=O)[C@@H](C)CC)[C@@H](C)CC)[C@@H](C)CC)C(=O)N[C@H](C(=O)NCC(=O)N[C@@H](CC(=O)O)C(=O)N[C@@H](CS)C(=O)N[C@@H](CCCC)C(=O)N[C@@H](CC(=O)O)C(=O)N[C@@H](CCCNC(=N)N)C(=O)N[C@@H](CO)C(=O)N[C@H](C(=O)N[C@@H](Cc1c[nH]c2ccccc12)C(N)=O)[C@@H](C)CC)C(C)C; 17-membered ring; 6 M Gdn.HCl, 0.1 M Na2HPO4 pH 7.5-8.0 / MeCN 9:1; 0.5 mM; 25.0 °C
[2] = CD spectroscopy, alpha-helical structure; format: physicochemical; conditions: alpha-helical content by CD; Fig. S159

| IC50 (MCL-1) [µM] | helicity (CD spectroscopy) [2] [%] | Molecule | ring closure, isolated yield [1] [%] |
| --- | --- | --- | --- |
| 26 ± 4 |  | CCCC[C@H](NC(=O)[C@@H]1CCCC[C@H](NC(=O)[C@H](C)NC(=O)[C@H](CC(C)C)NC(=O)[C@H](Cc2c[nH]cn2)NC(=O)[C@H](CCCNC(=N)N)NC(=O)[C@H](C)NC(=O)[C@@H](NC(=O)[C@H](CC(N)=O)NC(=O)[C@H](CCCNC(=N)N)NC(=O)[C@@H](NC(=O)[C@@H](NC(=O)[C@H](CC(=O)O)NC(=O)[C@H](CCC(=O)O)NC(C)=O)[C@@H](C)CC)[C@@H](C)CC)[C@@H](C)CC)C(=O)N[C@@H](C(C)C)C(=O)NCC(=O)N[C@@H](CC(=O)O)C(=O)N1)C(=O)N[C@@H](CC(=O)O)C(=O)N[C@@H](CCCNC(=N)N)C(=O)N[C@@H](CO)C(=O)N[C@H](C(=O)N[C@@H](Cc1c[nH]c2ccccc12)C(N)=O)[C@@H](C)CC [compound 59] | 49 |
| 7.4 ± 0.9 |  | CCCC[C@H](NC(=O)[C@H](CO)NC(=O)[C@H](CC(=O)O)NC(=O)CNC(=O)[C@@H](NC(=O)[C@H](CCC(N)=O)NC(=O)[C@H](C)NC(=O)[C@H](CC(C)C)NC(=O)[C@H](Cc1c[nH]cn1)NC(=O)[C@H](CCCNC(=N)N)NC(=O)[C@H](C)NC(=O)[C@@H](NC(=O)[C@H](CC(N)=O)NC(=O)[C@H](CCCNC(=N)N)NC(=O)[C@@H](NC(=O)[C@@H](NC(=O)[C@H](CC(=O)O)NC(=O)[C@H](CCC(=O)O)NC(C)=O)[C@@H](C)CC)[C@@H](C)CC)[C@@H](C)CC)C(C)C)C(=O)N[C@@H](CC(=O)O)C(=O)N[C@@H](CCCNC(=N)N)C(=O)N[C@@H](CO)C(=O)N[C@H](C(=O)N[C@@H](Cc1c[nH]c2ccccc12)C(N)=O)[C@@H](C)CC [BID-wt, reference compound] (Ac-EDIIRNIARHLAQVGDS[Nle]DRSIW-NH2) |  |
|  | 38 | Ac-EDIIRNIARHLA(alG)VGDCNLDRSIW-NH2 [compound 56, starting peptide carrying the allyl glycine residue] |  |
